# Test results from BindingDB's records for doi:10.7270/Q2V40ST1 (Burnham Center For Chemical Genomics, 2012).
# Target: Polyadenylate-binding protein 1 (Homo sapiens, UniProt P11940)
# Assay: MLLE binding blockers, Cy5 peptide tracer – biochemical, fluorescence polarization, Cy5-PAM2 peptide, secondary, miRNA deadenylation inhibitor project, dose response (AID 602260)
# Chain of Polyadenylate-binding protein 1 (P11940 whole entry): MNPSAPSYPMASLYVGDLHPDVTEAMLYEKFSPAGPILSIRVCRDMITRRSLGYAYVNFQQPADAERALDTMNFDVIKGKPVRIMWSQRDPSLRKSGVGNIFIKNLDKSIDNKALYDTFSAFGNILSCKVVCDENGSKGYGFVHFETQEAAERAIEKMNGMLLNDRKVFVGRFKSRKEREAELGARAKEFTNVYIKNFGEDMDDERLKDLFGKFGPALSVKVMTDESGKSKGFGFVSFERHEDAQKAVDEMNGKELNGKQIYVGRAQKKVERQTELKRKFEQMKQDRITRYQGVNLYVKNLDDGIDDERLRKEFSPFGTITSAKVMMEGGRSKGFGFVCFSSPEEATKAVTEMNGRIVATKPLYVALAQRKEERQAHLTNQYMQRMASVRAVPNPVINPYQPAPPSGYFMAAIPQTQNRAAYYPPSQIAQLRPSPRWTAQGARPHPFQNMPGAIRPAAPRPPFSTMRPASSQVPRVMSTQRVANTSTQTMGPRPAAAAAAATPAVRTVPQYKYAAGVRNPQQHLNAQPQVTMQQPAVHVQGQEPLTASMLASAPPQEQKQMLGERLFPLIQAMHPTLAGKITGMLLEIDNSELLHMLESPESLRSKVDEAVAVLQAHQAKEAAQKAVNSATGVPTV
row,SMILES,IC50 [µM]
1,O=C(O)CSc1cc(O)n(-c2ccc(Cl)c(Cl)c2)c1O,> 66
2,COc1cc2c(cc1OC)C(c1ccccc1O)N(c1cc(O)n(-c3ccccc3)c1O)CC2 (stereo not drawn),> 66
3,"CCSc1sccc1C1C2=C(CCCC2=O)N(c2cccnc2)C(=N)C1C#N (stereo not drawn) [2-azanyl-4-(2-ethylsulfanylthiophen-3-yl)-5-oxidanylidene-1-pyridin-3-yl-4,6,7,8-tetrahydroquinoline-3-carbonitrile]",> 66
4,"N#CC1C(=N)C2=C(N3CCCCC3)CCCC2C1(C#N)C#N (stereo not drawn) [3-Amino-4-piperidin-1-yl-5,6,7,7a-tetrahydro-indene-1,1,2-tricarbonitrile]",> 66
5,"CCOc1cc(C2C3=C(CCCC3=O)N=C3CCCC(=O)C32)ccc1OCCO (stereo not drawn) [9-[3-ethoxy-4-(2-hydroxyethoxy)phenyl]-2,3,4,5,6,7,9,10-octahydroacridine-1,8-dione]",> 66
6,"Cc1cc(C(F)(F)F)nc(SCC(=O)Nc2nc(O)c(C)s2)n1 [N-(5-methyl-4-oxidanylidene-1,3-thiazol-2-yl)-2-[4-methyl-6-(trifluoromethyl)pyrimidin-2-yl]sulfanyl-ethanamide]",> 66
7,CC(C)C1=NC(=O)NC2CCCCC12 (stereo not drawn) [SMR000060291],> 66
8,CCOC(=O)CC1=C(C(=O)OCC)C(c2ccc(C)o2)C(C#N)C(=N)O1 (stereo not drawn) [ethyl 6-amino-5-cyano-2-(2-ethoxy-2-oxoethyl)-4-(5-methyl-2-furyl)-4H-pyran-3-carboxylate],> 66

# Now from value to compound:
row,IC50 [µM],SMILES
1,> 66,CCOC(=O)c1ccc(NC(=O)Cc2sc3ncnn3c2O)cc1
2,> 66,Cc1ccc(NC(=O)Cc2sc(=O)n(-c3ccccc3)c2O)cc1
3,> 66,"O=C(Cc1sc(=O)n(-c2ccccc2)c1O)Nc1ccccc1 [2-(2,4-diketo-3-phenyl-thiazolidin-5-yl)-N-phenyl-acetamide]"
4,> 66,COc1ccc(NC(=O)Cc2sc3ncnn3c2O)cc1 [MLS000115464]
5,> 66,COc1ccc(C2=Nc3nnnn3C(c3ccc(F)cc3)C2)cc1 (stereo not drawn) [SMR000108015]
